What follows are compounds tested against T1, mTOR (Homo sapiens, UniProt P42345) (assay: In Vitro mTOR Kinase Assay (Echo), Test (a)(ii)). Settings: read-out: mTOR Kinase Assay (Echo).
T1 construct: FLAG; made in house
Type: biochemical
Excerpt: (a)(ii) In Vitro mTOR Kinase Assay (Echo)
The assay used AlphaScreen technology (Gray et al., Analytical Biochemistry, 2003, 313: 234-245) to determine the ability of test compounds to inhibit phosphorylation by recombinant mTOR.
A C-terminal truncation of mTOR encompassing amino acid residues 1362 to 2549 of mTOR (EMBL Accession No. L34075) was stably expressed as a FLAG-tagged fusion in HEK293 cells as described by Vilella-Bach et al., […], 1999, 274, 4266-4272. The HEK293 FLAG-tagged mTOR (1362-2549) stable cell line was routinely maintained at 37° C. with 5% CO2 up to a confluency of 70-90% in Dulbecco's modified Eagle's growth medium (DMEM; Invitrogen Limited, Paisley, UK Catalogue No. 41966-029) containing 10% heat-inactivated foetal calf serum (FCS; Sigma, Poole, Dorset, UK, Catalogue No. F0392), 1% L-glutamine (Gibco, Catalogue No. 25030-024) and 2 mg/ml Geneticin (G418 sulfate; Invitrogen Limited, UK Catalogue No. 1013 1-027). Following expression in the mammalian HEK293 cell line, expressed protein was purified using the FLAG epitope tag using standard purification techniques.
Aliquots (120 nl […]) of each compound dilution were acoustically dispensed placed using a Labcyte Echo 550 into a well of a Greiner 384-well low volume (LV) white polystyrene plate (Greiner Bio-one).
These assay solutions were incubated for 2 hours at room temperature.
Each reaction was stopped by the addition of […] of a mixture of EDTA (50 mM), bovine serum albumin (BSA; 0.5 mg/mL) and Tris-HCl pH 7.4 buffer (50 mM) containing p70 S6 Kinase (T389) 1A5 Monoclonal Antibody (Cell Signalling Technology, Catalogue No. 9206B) and AlphaScreen Streptavidin donor and Protein A acceptor beads (200 ng; Perkin Elmer, Catalogue No. 6760002B and 6760137R respectively) were added and the assay plates were left overnight at room temperature in the dark. The resultant signals arising from laser light excitation at 680 nm were read using a Packard Envision instrument.
The phosphorylated biotinylated peptide that is associated with AlphaScreen Streptavidin donor beads forms a complex with the p70 S6 Kinase (T389) 1A5 Monoclonal Antibody that is associated with Alphascreen Protein A acceptor beads. Upon laser light excitation at 680 nm, the donor bead: acceptor bead complex produces a signal that can be measured. Accordingly, the presence of mTOR kinase activity results in an assay signal. In the presence of an mTOR kinase inhibitor, signal strength is reduced.
mTOR enzyme inhibition for a given test compound was expressed as an IC50 value.

T1 sequence (P42345 1362-2549): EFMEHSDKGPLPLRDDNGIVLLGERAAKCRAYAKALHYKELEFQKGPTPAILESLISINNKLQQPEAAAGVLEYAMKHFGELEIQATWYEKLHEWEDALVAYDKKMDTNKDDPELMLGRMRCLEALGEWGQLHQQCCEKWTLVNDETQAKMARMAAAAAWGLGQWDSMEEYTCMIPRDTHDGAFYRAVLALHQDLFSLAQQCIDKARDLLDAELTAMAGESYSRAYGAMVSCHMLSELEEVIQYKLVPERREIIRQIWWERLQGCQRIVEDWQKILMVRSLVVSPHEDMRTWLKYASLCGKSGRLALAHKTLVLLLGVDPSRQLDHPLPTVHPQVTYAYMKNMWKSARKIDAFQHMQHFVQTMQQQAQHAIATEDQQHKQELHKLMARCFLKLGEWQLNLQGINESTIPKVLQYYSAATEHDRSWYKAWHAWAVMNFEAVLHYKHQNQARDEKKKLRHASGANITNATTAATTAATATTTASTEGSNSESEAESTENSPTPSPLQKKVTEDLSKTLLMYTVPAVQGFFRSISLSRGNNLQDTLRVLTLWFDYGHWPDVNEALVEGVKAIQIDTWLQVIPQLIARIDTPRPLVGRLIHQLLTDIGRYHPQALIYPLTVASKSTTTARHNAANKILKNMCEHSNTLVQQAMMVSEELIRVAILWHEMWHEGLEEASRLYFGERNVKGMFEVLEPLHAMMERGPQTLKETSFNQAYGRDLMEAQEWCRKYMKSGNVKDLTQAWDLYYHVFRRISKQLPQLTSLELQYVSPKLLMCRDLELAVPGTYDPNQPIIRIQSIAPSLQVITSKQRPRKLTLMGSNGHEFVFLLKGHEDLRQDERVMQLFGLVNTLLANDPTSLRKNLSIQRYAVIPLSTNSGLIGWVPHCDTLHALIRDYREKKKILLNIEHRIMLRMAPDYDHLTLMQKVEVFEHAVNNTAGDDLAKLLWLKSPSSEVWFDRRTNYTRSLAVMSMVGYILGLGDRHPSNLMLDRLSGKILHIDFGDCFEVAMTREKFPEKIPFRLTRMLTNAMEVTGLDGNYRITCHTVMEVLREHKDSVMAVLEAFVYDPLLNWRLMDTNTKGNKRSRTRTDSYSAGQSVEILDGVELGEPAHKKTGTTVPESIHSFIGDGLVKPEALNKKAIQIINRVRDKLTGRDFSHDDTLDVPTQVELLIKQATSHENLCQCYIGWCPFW

Row | IC50 | Structure (SMILES)
1 | 4.06 nM | CCCNC(=O)Nc1ccc(-c2nc(N3CCOC[C@@H]3C)cc(C3(S(C)(=O)=O)CC3)n2)cc1 [Example 2k, 1-[4-[4-[(3S)-3-methylmorpholin-4-yl]-6-(1-methylsulfonylcyclopropyl)pyrimidin-2-yl]phenyl]-3-propyl-urea]
2 | 27.4 nM | C[C@H]1COCCN1c1cc(C2(S(C)(=O)=O)CC2)nc(-c2ccc(NC(=O)NCC(C)(C)O)cc2)n1 [Example 2aa, 3-(2-hydroxy-2-methylpropyl)-1-[4-[4-[(3S)-3-methylmorpholin-4-yl]-6-(1-methylsulfonylcyclopropyl)pyrimidin-2-yl]phenyl]urea]
3 | 1.67 nM | CS(=O)(=O)C1(c2cc(N3CCOCC3)nc(-c3ccc(NC(=O)NC4CC4)cc3)n2)CCCC1 [Example 12j, 3-cyclopropyl-1-[4-[4-(1-methylsulfonylcyclopentyl)-6-morpholin-4-ylpyrimidin-2-yl]phenyl]urea]

Same assay, conditions: table of enzyme assay Test (a)(ii); read-out: Test (a)(ii) IC50

Row | Structure (SMILES) | IC50
4 | CNC(=O)Nc1ccc(-c2nc(N3CCOC[C@@H]3C)cc(C3(S(=O)(=O)c4c(C)nn(C(F)F)c4C)CC3)n2)cc1 [Example 75a, 1-[4-[4-[1-[1-(difluoromethyl)-3,5-dimethylpyrazol-4-yl]sulfonylcyclopropyl]-6-[(3S)-3-methylmorpholin-4-yl]pyrimidin-2-yl]phenyl]-3-methylurea] | 43.5 nM
5 | Cc1ccc(S(=O)(=O)C2(c3cc(N4CCOC[C@@H]4C)nc(-c4ccc(NC(=O)NC5CC5)cc4)n3)CC2)cc1 [Example 95m, 3-cyclopropyl-1-[4-[4-[(3S)-3-methylmorpholin-4-yl]-6-[1-(4-methylphenyl)sulfonylcyclopropyl]pyrimidin-2-yl]phenyl]urea] | 2.02 nM
6 | C[C@H]1COCCN1c1cc(C2(S(=O)(=O)C3CC3)CCC2)nc(-c2ccc(NC(=O)NCc3ncc[nH]3)cc2)n1 [Example 36i, 1-[4-[4-(1-cyclopropylsulfonylcyclobutyl)-6-[(3S)-3-methylmorpholin-4-yl]pyrimidin-2-yl]phenyl]-3-(1H-imidazol-2-ylmethyl)urea] | 51.8 nM
7 | C[C@H]1COCCN1c1cc(C2(S(C)(=O)=O)CC2)nc(-c2ccc(NC(=S)NCCN(C)C)cc2)n1 [Example 35c, 3-(2-dimethylaminoethyl)-1-[4-[4-[(3S)-3-methylmorpholin-4-yl]-6-(1-methylsulfonylcyclopropyl)pyrimidin-2-yl]phenyl]thiourea] | 108 nM
8 | C[C@H]1COCCN1c1cc(C2(S(C)(=O)=O)CCCC2)nc(-c2cnc(NC(=O)Nc3cnn(C)c3)nc2)n1 [Example 14v, 1-[5-[4-[(3S)-3-methylmorpholin-4-yl]-6-(1-methylsulfonylcyclopentyl)pyri-midin-2-yl]pyrimidin-2-yl]-3-(1-methylpyrazol-4-yl)urea] | 82.3 nM
9 | CCCNC(=O)Nc1ccc(-c2nc(N3CCOC[C@@H]3C)cc(C3(S(C)(=O)=O)CC3)n2)cc1 [Example 2k, 1-[4-[4-[(3S)-3-methylmorpholin-4-yl]-6-(1-methylsulfonylcyclopropyl)pyrimidin-2-yl]phenyl]-3-propyl-urea] | 3.81 nM
10 | CC[C@H]1COCCN1c1cc(C2(S(=O)(=O)c3ccccc3)CC2)nc(-c2ccc(NC(=O)N[C@@H](C)CO)cc2)n1 [Example 74f, 1-[4-[4-[1-(benzenesulfonyl)cyclopropyl]-6-[(3S)-3-ethylmorpholin-4-yl]pyrimidin-2-yl]phenyl]-3-[(2S)-1-hydroxypropan-2-yl]urea] | 3.99 nM
11 | Cc1cc(F)ccc1S(=O)(=O)C1(c2cc(N3CCOC[C@@H]3C)nc(-c3ccc(NC(=O)NC4CC4)cc3)n2)CC1 [Example 82a, 3-cyclopropyl-1-[4-[4-[1-(4-fluoro-2-methylphenyl)sulfonylcyclopropyl]-6-[(3S)-3-methylmorpholin-4-yl]pyrimidin-2-yl]phenyl]urea] | 26.5 nM
12 | CN(C)CCNC(=O)Nc1ccc(-c2nc(N3CCOCC3)cc(C3(S(=O)(=O)C4CC4)CCC3)n2)cc1 [Example 13t, 1-[4-[4-(1-cyclopropylsulfonylcyclobutyl)-6-morpholin-4-ylpyrimidin-2-yl]phenyl]-3-(2-dimethylaminoethyl)urea] | 172 nM
13 | CCCNC(=S)Nc1ccc(-c2nc(N3CCOC[C@@H]3C)cc(C3(S(=O)(=O)CCCO)CC3)n2)cc1 [Example 37l, 3-[4-[4-[1-(3-hydroxypropylsulfonyl)cyclopro-pyl]-6-[(3S)-3-methylmorpholin-4-yl]pyrimidin-2-yl]phenyl]-1-propylthiourea] | 32 nM
14 | Cc1nn(C)cc1S(=O)(=O)C1(c2cc(N3CCOC[C@@H]3C)nc(-c3ccc(NC(=O)NCC(F)F)cc3)n2)CC1 [Example 55d, 3-(2,2-difluoroethyl)-1-[4-[4-[1-(1,3-dimethylpyrazol-4-yl)sulfonylcyclopropyl]-6-[(3S)-3-methylmorpholin-4-yl]pyrimidin-2-yl]phenyl]urea] | 35.1 nM
15 | C[C@H]1COCCN1c1cc(C2(S(=O)(=O)c3c(F)cccc3F)CC2)nc(-c2ccc(NC(=O)NCCO)cc2)n1 [Example 86c, 1-[4-[4-[1-(2,6-difluorophenyl)sulfonylcyclopropyl]-6-[(3S)-3-methylmorpholin-4-yl]pyrimidin-2-yl]phenyl]-3-(2-hydroxyethyl)urea] | 2.47 nM
16 | C[C@H]1COCCN1c1cc(C2(S(=O)(=O)c3ccc(F)cc3)CC2)nc(-c2ccc(NC(=O)NC3(CO)CC3)cc2)n1 [Example 36x, 1-[4-[4-[1-(4-fluorophenyl)sulfonylcyclopropyl]-6-[(3S)-3-methylmorpholin-4-yl]pyrimidin-2-yl]phenyl]-3-[1-(hydroxymethyl)cyclopropyl]urea] | 182 nM
17 | Cc1ccc(F)cc1S(=O)(=O)C1(c2cc(N3CCOC[C@@H]3C)nc(-c3ccc(NC(=O)NCCF)cc3)n2)CC1 [Example 61c, 3-(2-fluoroethyl)-1-[4-[4-[1-(5-fluoro-2-methylphenyl)sulfonylcyclopropyl]-6-[(3S)-3-methylmorpholin-4-yl]pyrimidin-2-yl]phenyl]urea] | 21.1 nM

Continued, values first:

Row | IC50 | Structure (SMILES)
18 | 6.31 nM | Cc1ccc(S(=O)(=O)C2(c3cc(N4CCOC[C@@H]4C)nc(-c4ccc(NC(=O)Nc5cnn(C)c5)cc4)n3)CC2)cc1 [Example 95r, 1-[4-[4-[(3S)-3-methylmorpholin-4-yl]-6-[1-(4-methylphenyl)sulfonylcyclopropyl]pyrimidin-2-yl]phenyl]-3-(1-methylpyrazol-4-yl)urea]
19 | 1.98 nM | CCNC(=O)Nc1ccc(-c2nc(N3CCOC[C@@H]3C)cc(C3(S(=O)(=O)c4cccc(F)c4)CC3)n2)cc1 [Example 53e, 1-ethyl-3-[4-[4-[1-(3-fluorophenyl)sulfonylcyclopro-pyl]-6-[(3S)-3-methylmorpholin-4-yl]pyrimidin-2-yl]phenyl]urea]
20 | 2.08 nM | C[C@H]1COCCN1c1cc(C2(S(=O)(=O)c3ccc(F)cc3)CC2)nc(-c2ccc(NC(=O)Nc3ncns3)cc2)n1 [Example 36z, 1-[4-[4-[1-(4-fluorophenyl)sulfonylcyclopropyl]-6-[(3S)-3-methylmorpholin-4-yl]pyrimidin-2-yl]phenyl]-3-(1,2,4-thiadiazol-5-yl)urea]
21 | 6.37 nM | C[C@H]1COCCN1c1cc(C2(S(=O)(=O)c3ccccc3)CC2)nc(-c2ccc(NC(=O)NCc3ncc[nH]3)cc2)n1 [Example 36bn, 1-[4-[4-[1-(benzenesulfonyl)cyclopropyl]-6-[(3S)-3-methylmorpholin-4-yl]pyrimidin-2-yl]phenyl]-3-(1H-imidazol-2-ylmethyl)urea]
22 | 3.62 nM | C[C@@H](CO)NC(=O)Nc1ccc(-c2nc(N3CCOC[C@@H]3C)cc(C3(S(=O)(=O)c4nccs4)CCC3)n2)cc1 [Example 98h, 3-[(2S)-1-hydroxypropan-2-yl]-1-[4-[4-[(3S)-3-methylmorpholin-4-yl]-6-[1-(1,3-thiazol-2-ylsulfonyl)cyclobutyl]pyrimidin-2-yl]phenyl]urea]
23 | 18 nM | C[C@H]1COCCN1c1cc(C2(S(=O)(=O)C3CC3)CCCC2)nc(-c2ccc(NC(=O)NC3CC3)cc2)n1 [Example 36j, 3-cyclopropyl-1-[4-[4-(1-cyclopropylsulfonylcyclopentyl)-6-[(3S)-3-methylmorpholin-4-yl]pyrimidin-2-yl]phenyl]urea]
24 | 1.23 nM | C[C@H]1COCCN1c1cc(C2(S(=O)(=O)C(C)(C)C)CC2)nc(-c2ccc(NC(=O)NCCO)cc2)n1 [Example 18g, 1-[4-[4-(1-tert-butylsulfonylcyclopropyl)-6-[(3S)-3-methylmorpholin-4-yl]pyrimidin-2-yl]phenyl]-3-(2-hydroxyethyl)urea]
25 | 15.3 nM | C[C@H]1COCCN1c1cc(C2(S(=O)(=O)c3ccc(C#N)cc3Cl)CC2)nc(-c2ccc(NC(=O)NCCF)cc2)n1 [Example 85i, 1-[4-[4-[1-(2-chloro-4-cyanophenyl)sulfonylcyclopropyl]-6-[(3S)-3-methylmorpholin-4-yl]pyrimidin-2-yl]phenyl]-3-(2-fluoroethyl)urea]
